Laboratory results as given in ChEMBL document CHEMBL1121445, “Structure-activity analyzed by pattern recognition: the asymmetric case” (J Med Chem, 1980).
Activity calls are given as the source filed them. The calls are words filed in the database; no cut-off is given here.

Key:
[1] = Partition coefficient (logP); type: physicochemical; conditions: octanol/water
[2] = tested on: Plasmodium berghei; assay: Antimalarial activity against Plasmodium berghei.; type: functional, organism-based
[3] = tested on: Plasmodium berghei; assay: Antimalarial activity against Plasmodium berghei; Active; type: functional, organism-based

SMILES | logP ([1]; read-out: logP) | Activity [2] | Activity [3] | logP [1]
O=C1C(=O)c2cccnc2C(Nc2ccccc2)=C1Cl | 1.3 | Not toxic |  | 
CCOC1=CC(=O)C(=O)c2ccccc21 | 1.2 | Not toxic |  | 
Cc1ccc(/N=C2/C(N)=CC(=O)c3ncccc32)cc1C | 2.5 | Not toxic |  | 
COc1ccc(/N=C2/C(Nc3ccc(OC)cc3)=CC(=O)c3ncccc32)cc1 | 4.5 | Not toxic |  | 
CCCCCCCCCCCCCCSC1=C(O)C(=O)c2cccnc2C1=O | 8.62 |  | Active | 
CC(C)CCC1=C(O)C(=O)c2ccccc2C1=O | 3.87 |  | Active | 
COc1ccc(NC2=CC(=O)C(=O)c3ccccc32)cc1 | 1.9 |  | Active | 
O=C1C=C(Nc2ccc(Cl)cc2)/C(=N/c2ccc(Cl)cc2)c2cccnc21 | 5.6 | Not toxic |  | 
CCCCCCCCCCC1=C(O)C(=O)c2cc(OC)ccc2C1=O | 6.47 | Not toxic |  | 
CCCCCCCCCCCCCCCCCCSC1=C(O)C(=O)c2cccnc2C1=O |  |  | Active | 9.62
CCCCCN(CCCCC)CCC/N=C1/C=C(O)C(=O)c2ccccc21 | 5.47 |  | Active | 
CCOC(=O)c1ccc(/N=C2/C(Nc3ccc(C(=O)OCC)cc3)=CC(=O)c3ncccc32)cc1 | 4.5 | Not toxic |  | 
Cc1ccc2c(c1)C(=O)C(O)=C(CCC(C)C)C2=O | 4.26 |  | Active | 
CCCCCCCCCCCCSC1=C(O)C(=O)c2cccnc2C1=O | 6.62 |  | Active | 
CC1=C(O)C(=O)c2ccccc2C1=O | 0.2 | Not toxic |  | 
O=C1C(=O)c2ccccc2C(O)=C1CCCC1CCCCC1 | 5.31 |  | Active | 
CN(C)CCCN(C1=CC(=O)C(=O)c2ccccc21)c1ccccc1 | 3.4 |  | Active | 
Cc1ccc(/N=C2/C(Nc3ccc(C)c(C)c3)=CC(=O)c3ncccc32)cc1C | 5.6 | Not toxic |  | 
CCN(CC)CCCC/N=C1/C=C(O)C(=O)c2ccccc21 | 3.79 |  | Active | 
CCCCCCCCCCCC1=C(O)C(=O)C=C(O)C1=O [EMBELIN] | 5.04 | Not toxic |  | 
O=C(CCC1CCCCC1)C1=CC(=O)c2ccccc2C1=O | 4.1 | Not toxic |  | 
CCCC/N=C1\C=C(O)c2ncccc2C1=N | 1.5 | Not toxic |  | 
O=C1C(=O)c2cc(Cl)ccc2C(O)=C1CCCCC1CCCCC1 | 6.69 | Not toxic |  | 
O=C1C(=O)c2c(ccc3ccccc23)C(O)=C1CCCC1CCCCC1 | 6.63 | Not toxic |  | 

SMILES | logP ([1]; read-out: logP) | Activity [2] | Activity [3] | logP [1]
COc1ccc(/N=C2/C(N)=CC(=O)c3ncccc32)cc1 | 1.5 | Not toxic |  | 
CCCCCCCCCCC1=C(O)C(=O)c2ccc(OC)cc2C1=O | 6.47 | Not toxic |  | 
Cc1ccc(NC2=C(Cl)C(=O)C(=O)c3cccnc32)cc1 | 1.5 | Not toxic |  | 
CCCCCCCCCC1=C(O)C(=O)c2sccc2C1=O | 5.06 | Not toxic |  | 
O=C1C(O)=C(CCCCCCCCC2CCCCC2)C(=O)c2ccccc21 [MENOCTONE] | 7.81 |  | Active | 
CCCCCC/N=C1/C=C(O)C(=O)c2ccc(C)nc21 | 1.5 | Not toxic |  | 
CCN(CC)C1=CC(=O)C(=O)c2ccccc21 | 3.28 |  | Active | 
CC(C)CCC1=CC(=O)c2ccccc2C1=O | 4 | Not toxic |  | 
O=C1C=C(NCCCCC2CCCCC2)c2ccccc2C1=O | 6.11 |  | Active | 
CCCCCOC1=CC(=O)C(=O)c2ccccc21 | 3.38 | Not toxic |  | 
NC1=CC(=O)c2ncccc2/C1=N\c1ccc(Cl)cc1 | 2.5 | Not toxic |  | 
CCCC(C)COC1=CC(=O)C(=O)c2ccccc21 (stereo unspecified) | 3.38 | Not toxic |  | 
O=C1C(=O)c2ccc(O)cc2C(O)=C1CCCC1CCCCC1 | 4.64 | Not toxic |  | 
CCCCCCCCCCCCCCCC1=C(O)C(=O)c2cccnc2C1=O | 7.5 |  | Active | 
O=C1C(=O)c2ncccc2C(O)=C1CCCCCCCCC1CCCCC1 | 6.5 |  | Active | 
CC1=C(CCC(C)C)C(=O)c2ccccc2C1=O | 4.69 | Not toxic |  | 
NC1=CC(=O)C(=O)c2cccnc21 | 1.2 | Not toxic |  | 
CC(C)CCC1=C(N)C(=O)c2ccccc2C1=O | 4.37 | Not toxic |  | 
O=C1C(=O)C2=C(CCCC2)C(O)=C1CCCC1CCCCC1 | 5.93 | Not toxic |  | 
CC(C)CCC1=C(Cl)C(=O)c2ccccc2C1=O | 4.64 | Not toxic |  | 
Cc1ccc2c(c1)C(=O)C(CCC(C)C)=C(O)C2=O | 4.26 |  | Active | 
CCCCCCCCCCC1=C(O)C(=O)c2ccc(Br)cc2C1=O | 7.17 | Not toxic |  | 
NC1=CC(=O)c2ncccc2/C1=N\c1ccccc1 | 1.5 | Not toxic |  | 
CCCCCCCCCCCCCCCC/N=C1\C=C(O)c2ncccc2C1=O | 7.8 | Not toxic |  | 
